# Values of other authors in US20240165064A1, “LONG-LASTING RESORBABLE SUBCUTANEOUS IMPLANT WITH PROLONGED RELEASE OF PRE-CONCENTRATED PHARMACOLOGICALLY ACTIVE SUBSTANCE IN POLYMER FOR THE TREATMENT OF HYPOTHYROIDISM, AND METHOD” (priority 2021, published 2024).
# Tested on: patients with primary hypothyroidism
# [1] = T3 group compared to T4 group, 6 weeks
smiles,measurement,setting,value
"N[C@@H](Cc1cc(I)c(Oc2ccc(O)c(I)c2)c(I)c1)C(=O)O [T3, triiodothyronine]",weight lost on average more than the group receiving T4 treatment,"14 patients, three times a day for 6 weeks, T3 group compared to T4 group",1.8 ± 1.9 kg
same,decrease in low density cholesterol (non-HDL),[1],13.3±12.1%
same,decrease in total cholesterol,[1],10.9±10.0%
same,reduction in apolipoprotein B,[1],18.3±28.6%
same,side effects,"T3 treatment compared to T4 treatment, 6 weeks",without presenting significant side effects
